Measured values as given in ChEMBL document CHEMBL1124314, “Development of phosphonate derivatives of gadolinium chelates for NMR imaging of calcified soft tissues” (J Med Chem, 1989).

Legend:
[1] = Ratio of uptake of [GD] in bone 1 hr post injection with 0.01(A) to that of blood; assay type: functional
Rattus norvegicus [2] = organism: Rattus norvegicus; assay: Biodistribution in rat bone in the presence of NCAGd/0.01 M lig; assay type: ADME, organism-based, Bone element; settings: in vivo
Rattus norvegicus [3] = organism: Rattus norvegicus; assay: Uptake of [GD] in bone 1 hr post injection with NCA GD dose; assay type: functional, Bone element
Rattus norvegicus [4] = organism: Rattus norvegicus; assay: Biodistribution in rat spleen in the presence of NCAGd/0.01 M lig; assay type: ADME, organism-based; settings: in vivo
Rattus norvegicus [5] = organism: Rattus norvegicus; assay: Biodistribution in rat muscle in the presence of NCAGd/0.01 M lig; assay type: ADME, organism-based, Muscle tissue; settings: in vivo
[6] = Ratio of uptake of [GD] in bone 1 hr post injection with 0.01(A) to that of muscle; assay type: functional
Rattus norvegicus [7] = organism: Rattus norvegicus; assay: Biodistribution in rat blood in the presence of NCAGd/0.01 M lig; assay type: ADME, organism-based; settings: in vivo
Rattus norvegicus [8] = organism: Rattus norvegicus; assay: Uptake of [GD] in bone 1 hr post injection with 0.01(A) of the compound; assay type: functional, Bone element
Rattus norvegicus [9] = organism: Rattus norvegicus; assay: Uptake of [GD] in bone 1 hr post injection with 0.01(N) of the compound; assay type: functional, Bone element
Rattus norvegicus [10] = organism: Rattus norvegicus; assay: Biodistribution in rat heart in the presence of NCAGd/0.01 M lig; assay type: ADME, organism-based; settings: in vivo
Rattus norvegicus [11] = organism: Rattus norvegicus; assay: Biodistribution in rat liver by in the presence of NCAGd/0.01 M lig; assay type: ADME, organism-based; settings: in vivo
Rattus norvegicus [12] = organism: Rattus norvegicus; assay: Biodistribution in rat kidney in the presence of NCAGd/0.01 M lig; assay type: ADME, organism-based; settings: in vivo
[13] = Ratio of uptake of [GD] in bone 1 h post injection with 0.01(N) to that of blood; assay type: functional
[14] = Ratio of uptake of [GD] in bone 1 hr post injection with 0.01(N) to that of muscle; assay type: functional
Rattus norvegicus [15] = organism: Rattus norvegicus; assay: Uptake of [GD] in bone 1 h post injection with 0.01 of the compound; assay type: functional, Bone element
[16] = Ratio of uptake of [GD] in bone 1 hr post injection with NCA GD dose to that of muscle; assay type: functional
[17] = Ratio of uptake of [GD] in bone 1 hr post injection with 0.01 (N) to that of muscle
[18] = Ratio of uptake of [GD] in bone 1 hr post injection with 0.01 (N) to that of blood
Rattus norvegicus [19] = organism: Rattus norvegicus; assay: Uptake of [GD] in bone 1 hr post injection with 0.01 (N) of the compound
[20] = Ratio of uptake of [GD] in bone 1 hr post injection with 0.01 to that of muscle; assay type: functional

| SMILES | Ratio [1] [%] | ID/organ (Rattus norvegicus [2]) [%] | ID (Rattus norvegicus [3]) [%] | ID/organ (Rattus norvegicus [4]) [%] | ID/organ (Rattus norvegicus [5]) [%] | Ratio [6] [%] | ID/organ (Rattus norvegicus [7]) [%] | ID (Rattus norvegicus [8]) [%] | ID (Rattus norvegicus [9]) [%] | ID/organ (Rattus norvegicus [10]) [%] | ID/organ (Rattus norvegicus [11]) [%] | ID/organ (Rattus norvegicus [12]) [%] | Ratio [13] | Ratio [14] [%] | ID (Rattus norvegicus [15]) [%] | Ratio [16] [%] | Ratio [17] [%] | Ratio [18] [%] | ID (Rattus norvegicus [19]) [%] | Ratio [20] [%] |
| --- | --- | --- | --- | --- | --- | --- | --- | --- | --- | --- | --- | --- | --- | --- | --- | --- | --- | --- | --- | --- |
| OC(CNCCNCC(O)c1ccccc1)c1ccccc1 (stereo not drawn) | 0.139 | 56.8 | 56.8 | 0.135 | 6.09 | 1.6 | 2.35 | 6.37 | 6.36 | 0.34 | 20.9 | 3.57 | 0.188 | 2.14 |  |  |  |  |  |  |
| CC(C)(CO)NCCNC(C)(C)CO |  | 27.7 | 27.7 | 0.19 | 4.09 |  | 7.25 |  |  | 0.28 | 41 | 2.85 |  |  | 7.23 | 6.78 | 1.47 | 0.135 | 2.56 | 1.61 |
